In paper PMC6614837 (Nucleic Acids Research, 2019):

Tests used:
[1] = molecular target: T1, RNase P holoenzyme from Thermotoga maritima (Thermotoga maritima, UniProt Q9X1H4); test: Real-time fluorescence-based (FRET) RNase P activity assay with minihelix (Mh) substrate; assay type: biochemical; conditions: fluorescent Mh substrate 270 nM, holoenzyme 33 nM, 10% DMSO, 37°C, 400 mM AmOAc, 100 mM MgCl2
T1 construct: made in house
T1 sequence (Q9X1H4 1-117): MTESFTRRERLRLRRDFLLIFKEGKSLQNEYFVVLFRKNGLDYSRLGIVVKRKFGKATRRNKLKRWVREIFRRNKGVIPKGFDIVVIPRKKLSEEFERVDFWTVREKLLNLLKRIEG
In short: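 Reconstituted holoenzyme (P RNA:P protein 1:1.1) at 33 nM with 270 nM minihelix labelled Alexa Fluor 488/BHQ quencher, in buffer H (pH 7.4, 400 mM AmOAc, 100 mM MgCl2), 10% DMSO, 37°C. Cleavage followed as fluorescence increase (ex 485, em 535 nm); initial velocities from linear slopes.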

[2] = molecular target: Bacillus subtilis RNase P; design: method as in PMID 25249623; conditions: fluorescent pre-tRNA substrate ref 26; read-out: Reported IC50; cited from earlier work
[3] = molecular target: T2, RNase P protein (TmP, P protein) (Thermotoga maritima, UniProt Q9X1H4 1-117); test: BLI; 10 mM Mg2+, 5% DMSO; BLI (Octet RED96): 20 mM HEPES pH 7.4, 100 mM ammonium acetate, 10 mM MgCl2, 2.5-5% DMSO, 30 C; P protein:P RNA in 33 mM Tris, 66.6 mM HEPES, 200 mM ammonium acetate, 10 mM MgCl2, pH 7.4; conditions: protein: recombinant; tags: N-terminal His6 (GST fusion cleaved with TEV); single strand
T2 sequence: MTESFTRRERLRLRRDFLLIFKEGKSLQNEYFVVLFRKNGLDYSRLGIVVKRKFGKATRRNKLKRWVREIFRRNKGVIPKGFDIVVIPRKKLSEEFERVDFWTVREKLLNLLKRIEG

In the case of `CC(=O)Oc1cc(-c2coc3cc(OC(C)=O)c(OC(C)=O)c(OC(C)=O)c3c2=O)cc(OC(C)=O)c1OC(C)=O` [iriginol hexaacetate, reference compound], the IC50 [1] is listed as 29500 nM and the IC50 [2] is listed as 800 nM.

GGAAAAAGAU (ssRNA) [5' RNA leader (10 nt)] showed a Kd [3] of 35.6 nM.
